Experimental data from ChEMBL document CHEMBL1201862, “PubChem BioAssay data set” (2004).
The source made the active and inactive calls.

What was measured:
[1] = target: T1, Ubiquitin-conjugating enzyme E2 N (Homo sapiens, UniProt P61088); format: functional
T1 sequence (P61088 whole entry): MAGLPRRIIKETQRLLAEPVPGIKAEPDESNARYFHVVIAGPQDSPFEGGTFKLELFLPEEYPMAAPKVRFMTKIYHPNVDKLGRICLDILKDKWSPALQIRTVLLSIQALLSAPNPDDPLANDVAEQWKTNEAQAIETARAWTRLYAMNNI

[2] = enhancers of respiration in Yfh1-depleted yeast, dose response, Friedreich's ataxia, plus single-dose screen (AID 1465); format: functional;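 further: yeast depleted of Yfh1p frataxin homolog grown on glycerol needing respiration; WST-1 tetrazolium dye reduction as measure of cellular dehydrogenase metabolic activity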
[3] = target: T1, Ubiquitin-conjugating enzyme E2 N; format: functional; remark: listed apart in the source
[4] = target: T2, Bcl-2-related protein A1 (Mus musculus, UniProt Q07440); format: functional;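 further: confirmatory dose–response counterscreen on Bfl-1, used to check hits from a UBC13 polyubiquitin inhibitor campaign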
T2 sequence (Q07440 whole entry): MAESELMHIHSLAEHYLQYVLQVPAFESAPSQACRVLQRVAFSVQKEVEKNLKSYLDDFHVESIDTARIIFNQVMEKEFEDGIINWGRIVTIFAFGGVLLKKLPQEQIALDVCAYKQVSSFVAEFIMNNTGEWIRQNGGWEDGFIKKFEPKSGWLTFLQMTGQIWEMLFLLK

[5] = target: T3, Bcl-2-like protein 10 (Homo sapiens, UniProt Q9HD36); assay: Biochemical TR3 FP assay of Bcl-B inhibitor potency, EC50 (AID 1243); format: functional
T3 sequence (Q9HD36 whole entry): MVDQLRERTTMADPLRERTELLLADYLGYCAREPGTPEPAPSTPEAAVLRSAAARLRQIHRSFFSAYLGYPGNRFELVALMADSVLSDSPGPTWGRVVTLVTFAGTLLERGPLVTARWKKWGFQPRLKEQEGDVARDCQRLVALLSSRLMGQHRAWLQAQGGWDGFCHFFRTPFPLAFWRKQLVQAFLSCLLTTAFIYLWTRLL

[6] = target: Induced myeloid leukemia cell differentiation protein Mcl-1 (Homo sapiens, UniProt Q07820); assay: MCL1-BIM BH3 interaction inhibitors, dose response, biochemical, fluorescence polarization, BIM-BH3 peptide, 1536-well (AID 2217)
[7] = NIH-3T3 fibroblast cytotoxicity, dose response, cytotoxicity control, cell-based, fluorescence, Alamar Blue, secondary assay (AID 2327); format: functional;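 further: NIH-3T3 mouse fibroblasts cultured with fluconazole at 8 µg/mL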
[8] = C. albicans growth with fluconazole, confirmation, fluorescence, retest (AID 2467); format: functional, cell-based
[9] = target: Heat shock protein HSP 90-alpha (Homo sapiens, UniProt P07900); format: functional, organism-based
[10] = target: T4, Hexokinase HKDC1 (Homo sapiens, UniProt Q2TB90); assay: HKDC1 hexokinase inhibitors, dose response, biochemical, W721R variant (AID 504729); format: functional
T4 sequence (Q2TB90 whole entry): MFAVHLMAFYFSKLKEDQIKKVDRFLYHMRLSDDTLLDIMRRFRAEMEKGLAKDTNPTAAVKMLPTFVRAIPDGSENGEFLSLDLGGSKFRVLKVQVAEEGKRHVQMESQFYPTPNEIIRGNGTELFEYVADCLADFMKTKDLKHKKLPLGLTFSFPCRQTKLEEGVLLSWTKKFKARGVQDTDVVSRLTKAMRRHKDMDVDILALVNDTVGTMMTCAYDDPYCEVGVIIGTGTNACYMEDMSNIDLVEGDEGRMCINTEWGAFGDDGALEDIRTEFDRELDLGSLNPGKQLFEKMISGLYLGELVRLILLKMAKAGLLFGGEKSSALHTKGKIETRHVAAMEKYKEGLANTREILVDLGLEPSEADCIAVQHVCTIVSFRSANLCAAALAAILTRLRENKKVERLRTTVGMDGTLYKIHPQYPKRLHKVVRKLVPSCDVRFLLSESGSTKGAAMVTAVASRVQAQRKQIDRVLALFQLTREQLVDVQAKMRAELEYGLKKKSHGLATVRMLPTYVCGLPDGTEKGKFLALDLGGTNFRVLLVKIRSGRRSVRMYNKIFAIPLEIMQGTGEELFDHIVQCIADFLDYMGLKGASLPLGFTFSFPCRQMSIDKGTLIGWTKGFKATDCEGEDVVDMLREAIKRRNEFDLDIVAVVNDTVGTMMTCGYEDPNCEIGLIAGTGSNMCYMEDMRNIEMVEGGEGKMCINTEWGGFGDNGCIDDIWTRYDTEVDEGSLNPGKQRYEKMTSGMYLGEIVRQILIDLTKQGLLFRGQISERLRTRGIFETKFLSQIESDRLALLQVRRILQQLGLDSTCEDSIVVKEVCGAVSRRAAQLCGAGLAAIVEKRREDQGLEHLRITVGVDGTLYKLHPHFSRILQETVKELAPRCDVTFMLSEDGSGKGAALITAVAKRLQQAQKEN

[11] = target: Bcl-2-like protein 1 (Homo sapiens, UniProt Q07817); assay: BCL-XL inhibitors, dose response, selectivity assay for MCL1 inhibitor project, biochemical, fluorescence polarization, 1536-well (AID 2218)
[12] = Luminescent dose response cell-based high throughput screening assay for inhibitors of the Janus kinase 2 mutant JAK2V617F. [Related pubchem assays: 1446 (Primary screen.), 1521 (Confirmation assay.), 1486 (Counter screen.)]; format: functional
[13] = non-specific cell cytotoxicity, dose response, cytotoxicity control for PAX8 inhibitor project, plate reader, dry powder samples (AID 743021); format: functional, cell-based
[14] = target: Paired box protein Pax-8 (Homo sapiens, UniProt Q06710); assay: inhibitors of PAX8-driven TPO luciferase reporter, dose response, RMG-I cells, cherry-pick (AID 687027); format: functional, cell-based;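 further: luciferase reporter driven by Pax8 target thyroperoxidase promoter measured by SteadyGlo luminescence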
Chain of Paired box protein Pax-8 (Q06710 whole entry): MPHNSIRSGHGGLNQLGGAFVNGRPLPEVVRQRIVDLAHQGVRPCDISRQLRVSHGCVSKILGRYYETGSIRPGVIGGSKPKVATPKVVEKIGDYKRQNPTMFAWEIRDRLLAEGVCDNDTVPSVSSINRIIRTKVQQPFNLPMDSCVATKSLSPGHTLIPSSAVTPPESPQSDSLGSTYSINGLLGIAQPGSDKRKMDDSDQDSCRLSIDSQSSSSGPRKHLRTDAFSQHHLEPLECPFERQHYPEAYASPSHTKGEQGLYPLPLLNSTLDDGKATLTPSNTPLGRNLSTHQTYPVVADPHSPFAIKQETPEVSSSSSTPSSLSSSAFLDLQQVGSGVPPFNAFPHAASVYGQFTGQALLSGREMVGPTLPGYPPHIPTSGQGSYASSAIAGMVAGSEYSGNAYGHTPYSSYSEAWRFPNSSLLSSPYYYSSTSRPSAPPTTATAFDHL

Chain of Bcl-2-like protein 1 (Q07817 whole entry): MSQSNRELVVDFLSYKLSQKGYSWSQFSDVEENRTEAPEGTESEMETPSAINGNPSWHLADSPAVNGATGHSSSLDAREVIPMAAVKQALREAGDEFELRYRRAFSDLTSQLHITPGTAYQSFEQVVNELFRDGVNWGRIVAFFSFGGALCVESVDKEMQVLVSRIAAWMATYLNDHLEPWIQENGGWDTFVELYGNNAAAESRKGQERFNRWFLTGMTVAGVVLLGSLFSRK
Chain of Induced myeloid leukemia cell differentiation protein Mcl-1 (Q07820 whole entry): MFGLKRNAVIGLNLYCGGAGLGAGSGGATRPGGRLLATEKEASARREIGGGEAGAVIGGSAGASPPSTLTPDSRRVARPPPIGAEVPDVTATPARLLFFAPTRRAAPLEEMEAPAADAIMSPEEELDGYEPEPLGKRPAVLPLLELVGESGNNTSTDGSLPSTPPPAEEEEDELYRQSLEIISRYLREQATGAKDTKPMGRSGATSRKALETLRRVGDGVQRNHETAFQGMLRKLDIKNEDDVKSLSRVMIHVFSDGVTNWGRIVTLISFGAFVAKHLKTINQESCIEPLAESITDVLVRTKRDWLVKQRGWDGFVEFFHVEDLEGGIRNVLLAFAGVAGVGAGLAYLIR

SMILES: COc1ccc(C(=O)NC(=S)NNC(=O)c2ccc(NC(C)=O)cc2)cc1Br
- IC50 [1]: 18.1 µM (active)
- EC50 [2]: > 100 µM (active)
- IC50 [3]: 18.3 µM (active)
- IC50 [4]: > 20 µM (inactive)

SMILES: CCOc1ccc(/C=C(/NC(=O)c2ccc(C)cc2)C(=O)NCCO)cc1
- EC50 [5]: 13.2 µM (active)

SMILES: Cc1ccc(/N=C/c2cc(Cc3ccccc3Cl)cc([N+](=O)[O-])c2O)c(O)c1
- IC50 [6]: 9.13 µM (active)
- EC50 [7]: 11.3 µM (active)
- EC50 [8]: 1.78 µM (active)
- AC50 [9]: 1.61 µM (active)
- IC50 [10]: 28.5 µM (inactive)
- IC50 [11]: 7.22 µM (active)

SMILES: O=C(CCl)/N=c1\sccn1Cc1cccc2ccccc12
- IC50 [12]: 0.224 µM (active)
- AC50 [13]: 1.66 µM (active)
- AC50 [14]: 0.572 µM (active)
